Literature values in patent publication EP0527942B1, “COLONIC DRUG DELIVERY SYSTEM” (Perio Products Limited, priority 1990, dated 1991).

Test system: morphine-dependent rats
Conditions: for time to diarrhea, withdrawal behavior and tail skin temperature response: oral administration

| Compound | time to diarrhea, withdrawal behavior and tail skin temperature response [min] | time to diarrhea (direct colonic administration) [min] | activity when administered subcutaneously (subcutaneous administration) |
| --- | --- | --- | --- |
| C=CCN1CC[C@]23c4c5ccc(O)c4O[C@H]2C(=O)CC[C@@]3(O)[C@H]1C5 [naloxone] | ≤ 15 |  |  |
| C=C1CC[C@@]2(O)[C@H]3Cc4ccc(O)c5c4[C@@]2(CCN3CC2CC2)[C@H]1O5 [nalmefene] | ≤ 15 |  |  |
| nalmefene glucuronide |  | 5 to 8 | inactive |
